System: HepG2 (hepatocellular carcinoma) cell line
Conditions: human

| SMILES | SI HepG2/D6 | SI HepG2/TM91C235 | SI HepG2/W2 | IC50 [µM] |
| --- | --- | --- | --- | --- |
| CC(=O)O[C@H]1C[C@H]2[C@@H]([C@H](OC(C)=O)C[C@@H]3CC(=O)CC[C@@]32C)[C@@H]2CC[C@H]([C@H](C)CCCNCCCCNc3ccnc4cc(Cl)ccc34)[C@@]12C [Compound 24] | 7/6/6 | 7/6/6 | 7/6/6 |  |
| CC(=O)O[C@@H]1CC[C@@]2(C)[C@@H](C1)C[C@@H](OC(C)=O)[C@@H]1[C@@H]2C[C@H](OC(C)=O)[C@]2(C)[C@@H]([C@H](C)CCCN(C)CCCNc3ccnc4cc(Cl)ccc34)CC[C@@H]12 [Compound 21] | 134/229/71 | 134/229/71 | 134/229/71 |  |
| CC(=O)O[C@H]1C[C@H]2[C@@H]([C@H](OC(C)=O)C[C@@H]3CC(=O)CC[C@@]32C)[C@@H]2CC[C@H]([C@H](C)CCCNCCCCCCNc3ccnc4cc(Cl)ccc34)[C@@]12C [Compound 25] | 30/27/25 | 30/27/25 | 30/27/25 |  |
| CC(=O)O[C@H]1C[C@H]2[C@@H]([C@H](OC(C)=O)C[C@@H]3C[C@H](NC(=O)OC(C)(C)C)CC[C@@]32C)[C@@H]2CC[C@H]([C@H](C)CCCN(C)CCNc3ccnc4cc(Cl)ccc34)[C@@]12C [Compound 44, 24-N-Methyl-N-[(7-chloroquinoline-4-yl)amino]ethylamino-3α-N′-tert-butylcarbamate-7α,12α-diacetoxy-5β-cholane] | 293/264/144 | 293/264/144 | 293/264/144 |  |
| CC(=O)O[C@@H]1CC[C@@]2(C)[C@@H](C1)C[C@@H](OC(C)=O)[C@@H]1[C@@H]2C[C@H](OC(C)=O)[C@]2(C)[C@@H]([C@H](C)CCCN(C)CCNc3ccnc4cc(Cl)ccc34)CC[C@@H]12 [Compound 20, N-Methyl-N-(3α,7α,12α-triacetoxy-5β-cholan-24-yl)-N′-(7′-chloroquinolin-4′-yl)ethane-1,2-diamine] | 98/242/79 | 98/242/79 | 98/242/79 |  |
| CC(=O)O[C@@H]1CC[C@@]2(C)[C@@H](C1)C[C@@H](OC(C)=O)[C@@H]1[C@@H]2C[C@H](OC(C)=O)[C@]2(C)[C@@H]([C@H](C)CCCNCCCCNc3ccnc4cc(Cl)ccc34)CC[C@@H]12 [Compound 14] | 107/55/47 | 107/55/47 | 107/55/47 |  |
| CC(=O)O[C@H]1C[C@H]2[C@@H]([C@H](OC(C)=O)C[C@@H]3C[C@H](N)CC[C@@]32C)[C@@H]2CC[C@H]([C@H](C)CCCN(C)CCCNc3ccnc4cc(Cl)ccc34)[C@@]12C [Compound 55] | 45/44/50 | 45/44/50 | 45/44/50 |  |
| CC(=O)O[C@H]1C[C@H]2[C@@H]([C@H](OC(C)=O)C[C@@H]3C[C@H](N)CC[C@@]32C)[C@@H]2CC[C@H]([C@H](C)CCCN(CCC[C@@H](C)[C@H]3CC[C@H]4[C@@H]5[C@H](OC(C)=O)C[C@@H]6C[C@H](N)CC[C@]6(C)[C@H]5C[C@H](OC(C)=O)[C@]34C)CCNc3ccnc4cc(Cl)ccc34)[C@@]12C [Compound 60, N,N-Di(3α-amino-7α,12α-diacetoxy-5β-cholan-24-yl)-N′-(7′-chloroquinoline-4′-yl)-1,3-ethanediamine] | 21/19/19 | 21/19/19 | 21/19/19 |  |
| CC(=O)O[C@H]1C[C@H]2[C@@H]([C@H](OC(C)=O)C[C@@H]3C[C@H](N)CC[C@@]32C)[C@@H]2CC[C@H]([C@H](C)CCCNCCCNc3ccnc4cc(Cl)ccc34)[C@@]12C [Compound 53] | 54/75/43 | 54/75/43 | 54/75/43 |  |
| CC(=O)O[C@H]1C[C@H]2[C@@H]([C@H](OC(C)=O)C[C@@H]3C[C@H](O)CC[C@@]32C)[C@@H]2CC[C@H]([C@H](C)CCCNCCNc3ccnc4cc(Cl)ccc34)[C@@]12C [Compound 16, N-(3α-Hydroxy-7α,12α-diacetoxy-5β-cholan-24-yl)-N′-(7′-chloroquinolin-4′-yl)ethane-1,2-diamine] | 415/938/407 | 415/938/407 | 415/938/407 |  |
| CC(=O)O[C@H]1C[C@H]2[C@@H]([C@H](OC(C)=O)C[C@@H]3C[C@H](N(C)C)CC[C@@]32C)[C@@H]2CC[C@H]([C@H](C)CCCNCCCNc3ccnc4cc(Cl)ccc34)[C@@]12C [Compound 51] | 382/137/156 | 382/137/156 | 382/137/156 |  |
| CC(=O)O[C@H]1C[C@H]2[C@@H]([C@H](OC(C)=O)C[C@@H]3C[C@H](N)CC[C@@]32C)[C@@H]2CC[C@H]([C@H](C)CCCN(CCCNc3ccnc4cc(Cl)ccc34)CCC[C@@H](C)[C@H]3CC[C@H]4[C@@H]5[C@H](OC(C)=O)C[C@@H]6C[C@H](N)CC[C@]6(C)[C@H]5C[C@H](OC(C)=O)[C@]34C)[C@@]12C [Compound 61] | 10/9/7 | 10/9/7 | 10/9/7 |  |
| CC(=O)O[C@H]1C[C@H]2[C@@H]([C@H](OC(C)=O)C[C@@H]3C[C@H](O)CC[C@@]32C)[C@@H]2CC[C@H]([C@H](C)CCCNCCCCNc3ccnc4cc(Cl)ccc34)[C@@]12C [Compound 18] | 47/30/28 | 47/30/28 | 47/30/28 |  |
| CC(=O)O[C@H]1C[C@H]2[C@@H]([C@H](OC(C)=O)C[C@@H]3C[C@H](N)CC[C@@]32C)[C@@H]2CC[C@H]([C@H](C)CCCNCCNc3ccnc4cc(Cl)ccc34)[C@@]12C [Compound 52, 24-N-[(7-Chloroquinoline-4-yl)amino]ethylamino-3α-amino-7α,12α-diacetoxy-5β-cholane] |  |  |  | 3.77 |
| CC(=O)O[C@@H]1CC[C@@]2(C)[C@@H](C1)C[C@@H](OC(C)=O)[C@@H]1[C@@H]2C[C@H](OC(C)=O)[C@]2(C)[C@@H]([C@H](C)CCCNCCCCCCNc3ccnc4cc(Cl)ccc34)CC[C@@H]12 [Compound 15] | 47/29/25 | 47/29/25 | 47/29/25 |  |
| CC(=O)O[C@H]1C[C@H]2[C@@H]([C@H](OC(C)=O)C[C@@H]3C[C@H](NS(C)(=O)=O)CC[C@@]32C)[C@@H]2CC[C@H]([C@H](C)CCCNCCNc3ccnc4cc(Cl)ccc34)[C@@]12C [Compound 38] | 131/301/222 | 131/301/222 | 131/301/222 |  |
| CC(=O)O[C@H]1C[C@H]2[C@@H]([C@H](OC(C)=O)C[C@@H]3CC(=O)CC[C@@]32C)[C@@H]2CC[C@H]([C@H](C)CCCNCCNc3ccnc4cc(Cl)ccc34)[C@@]12C [Compound 22, N-(3-Oxo-7α,12α-diacetoxy-5β-cholan-24-yl)-N′-(7′-chloroquinolin-4′-yl)ethane-1,2-diamine] | 299/571/109 | 299/571/109 | 299/571/109 |  |
| CC(=O)N[C@@H]1CC[C@@]2(C)[C@@H](C1)C[C@@H](OC(C)=O)[C@@H]1[C@@H]2C[C@H](OC(C)=O)[C@]2(C)[C@@H]([C@H](C)CCCNCCCNc3ccnc4cc(Cl)ccc34)CC[C@@H]12 [Compound 37] | 55/114/51 | 55/114/51 | 55/114/51 |  |
| CC(=O)O[C@@H]1CC[C@@]2(C)[C@@H](C1)C[C@@H](OC(C)=O)[C@@H]1[C@@H]2C[C@H](OC(C)=O)[C@]2(C)[C@@H]([C@H](C)CCCNCCCNc3ccnc4cc(Cl)ccc34)CC[C@@H]12 [Compound 13] | 104/101/67 | 104/101/67 | 104/101/67 |  |
| CC(=O)O[C@H]1C[C@H]2[C@@H]([C@H](OC(C)=O)C[C@@H]3CC(NCCCNc4ccnc5cc(Cl)ccc45)CC[C@@]32C)[C@@H]2CC[C@H]([C@H](C)CCCNCCCNc3ccnc4cc(Cl)ccc34)[C@@]12C (mixture of isomers) [Compound 63] | 43/32/24 | 43/32/24 | 43/32/24 |  |
| CC(=O)O[C@H]1C[C@H]2[C@@H]([C@H](OC(C)=O)C[C@@H]3C[C@H](NS(C)(=O)=O)CC[C@@]32C)[C@@H]2CC[C@H]([C@H](C)CCCN(C)CCNc3ccnc4cc(Cl)ccc34)[C@@]12C [Compound 42, 24-N-Methyl-N-[(7-chloroquinoline-4-yl)amino]ethylamino-3α-methanesulfonamide-7α,12α-diacetoxy-5β-cholane] | 1194/2707/2197 | 1194/2707/2197 | 1194/2707/2197 |  |
| CC(=O)O[C@H]1C[C@H]2[C@@H]([C@H](OC(C)=O)C[C@@H]3CC(=O)CC[C@@]32C)[C@@H]2CC[C@H]([C@H](C)CCCNCCCNc3ccnc4cc(Cl)ccc34)[C@@]12C [Compound 23] | 161/182/121 | 161/182/121 | 161/182/121 |  |
| CC(=O)O[C@H]1C[C@H]2[C@@H]([C@H](OC(C)=O)C[C@@H]3C[C@H](NS(C)(=O)=O)CC[C@@]32C)[C@@H]2CC[C@H]([C@H](C)CCCNCCCNc3ccnc4cc(Cl)ccc34)[C@@]12C [Compound 39] | 130/119/147 | 130/119/147 | 130/119/147 |  |
| CC(=O)O[C@H]1C[C@H]2[C@@H]([C@H](OC(C)=O)C[C@@H]3C[C@H](O)CC[C@@]32C)[C@@H]2CC[C@H]([C@H](C)CCCNCCCCCCNc3ccnc4cc(Cl)ccc34)[C@@]12C [Compound 19] | 60/56/50 | 60/56/50 | 60/56/50 |  |
| CC(=O)O[C@H]1C[C@H]2[C@@H]([C@H](OC(C)=O)C[C@@H]3C[C@H](NC(=O)OC(C)(C)C)CC[C@@]32C)[C@@H]2CC[C@H]([C@H](C)CCCNCCNc3ccnc4cc(Cl)ccc34)[C@@]12C [Compound 40, 24-N-[(7-Chloroquinoline-4-yl)amino]ethylamino-3α-N′-tert-butylcarbamate-7α,12α-diacetoxy-5β-cholane] | 1743/531/464 | 1743/531/464 | 1743/531/464 |  |

Source: article PMC4032193 (Journal of Medicinal Chemistry, 2014)
